The results in this text go back to ChEMBL document CHEMBL1129233, “1,3-diaryl-2-carboxyindoles as potent non-peptide endothelin antagonists” (Bioorg Med Chem Lett, 1996).

SMILES strings stand for the structures. Several values for one entry are separate records, joined by “and”; a condition that tells them apart may be missing. Equal values may be shown once. Where only a bound is given, the exact number is not on record here.

For one assay, the target named is T1, Endothelin-1 receptor (Homo sapiens, UniProt P25101).
T1 sequence (P25101 whole entry): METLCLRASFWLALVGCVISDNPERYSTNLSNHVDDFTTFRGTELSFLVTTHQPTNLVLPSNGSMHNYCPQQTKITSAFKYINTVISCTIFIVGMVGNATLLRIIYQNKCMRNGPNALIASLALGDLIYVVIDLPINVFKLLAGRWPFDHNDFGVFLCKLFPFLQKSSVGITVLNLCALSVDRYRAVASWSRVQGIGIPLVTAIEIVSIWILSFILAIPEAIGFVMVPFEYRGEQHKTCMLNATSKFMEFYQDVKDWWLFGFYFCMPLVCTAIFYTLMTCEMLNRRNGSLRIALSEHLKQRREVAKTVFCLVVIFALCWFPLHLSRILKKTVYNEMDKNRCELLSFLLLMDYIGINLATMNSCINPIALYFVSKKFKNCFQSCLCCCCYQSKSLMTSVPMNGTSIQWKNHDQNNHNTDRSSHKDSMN
Nature of the assay: Inhibitory concentration to the endothelin A receptor expressed in LtK cells. The assay is classed as cell-based.

For assay [1], the species on record is Oryctolagus cuniculus. Nature of the assay: Inhibition of arachidonic acid release (AAR-B) in rabbit renal artery vascular smooth muscle cells (ETA) upon stimulation with ET-1. Type of assay: functional.
Assay [2] addresses T2, Endothelin receptor type B (Homo sapiens, UniProt P24530).
T2 sequence (P24530 whole entry): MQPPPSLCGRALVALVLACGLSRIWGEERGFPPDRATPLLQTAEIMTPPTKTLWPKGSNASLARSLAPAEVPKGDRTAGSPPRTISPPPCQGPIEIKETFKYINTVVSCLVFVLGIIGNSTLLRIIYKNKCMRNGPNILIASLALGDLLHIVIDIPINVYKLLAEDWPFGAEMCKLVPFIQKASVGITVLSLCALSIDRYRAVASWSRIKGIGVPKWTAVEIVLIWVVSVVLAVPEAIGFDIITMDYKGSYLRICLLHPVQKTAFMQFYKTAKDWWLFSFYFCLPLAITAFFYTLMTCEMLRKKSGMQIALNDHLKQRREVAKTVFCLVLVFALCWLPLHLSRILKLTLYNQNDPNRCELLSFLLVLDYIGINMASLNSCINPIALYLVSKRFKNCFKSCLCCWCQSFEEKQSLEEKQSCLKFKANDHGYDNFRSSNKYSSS
As to the kind of experiment: Inhibitory concentration against Endothelin B receptor expressed in CHO-K1 cells. Type of assay: cell-based.

Assay [3] concerns the target T2, Endothelin receptor type B. Nature of the assay: Compound was evaluated for binding affinity against human Endothelin B receptor.
Assay [4] deals with Endothelin-1 receptor (Oryctolagus cuniculus). As to the kind of experiment: Compound was evaluated for binding affinity against rabbit Endothelin A receptor.
The target of assay [5] is T3, Endothelin receptor type B (Rattus norvegicus, UniProt P21451).
T3 sequence (P21451 whole entry): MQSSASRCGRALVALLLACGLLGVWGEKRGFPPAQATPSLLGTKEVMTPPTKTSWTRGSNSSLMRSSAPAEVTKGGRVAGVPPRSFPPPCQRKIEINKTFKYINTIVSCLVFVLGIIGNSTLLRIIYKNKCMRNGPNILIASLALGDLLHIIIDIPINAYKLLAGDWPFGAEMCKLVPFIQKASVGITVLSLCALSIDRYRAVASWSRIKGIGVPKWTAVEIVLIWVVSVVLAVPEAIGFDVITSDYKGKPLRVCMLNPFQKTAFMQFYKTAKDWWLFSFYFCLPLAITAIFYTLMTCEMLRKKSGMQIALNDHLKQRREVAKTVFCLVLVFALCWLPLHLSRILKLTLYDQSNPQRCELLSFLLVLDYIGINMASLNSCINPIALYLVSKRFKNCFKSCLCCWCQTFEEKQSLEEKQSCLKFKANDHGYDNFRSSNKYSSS
As to the kind of experiment: Compound was evaluated for binding affinity against rat Endothelin B receptor; inactive.

The species named for assay [6] is Oryctolagus cuniculus. As to the kind of experiment: Ability to inhibit the release of arachidonic acid in rabbit renal artery vascular smooth muscle cells (ETA) upon stimulation with ET-1. The assay is classed as functional.

Turning to `COc1cc2c(-c3ccc4c(c3)OCO4)c(C(=O)O)n(Cc3ccc4c(c3)OCO4)c2cc1OCc1ccccc1`, the IC50 (usually the concentration at which inhibition is half-maximal) came to 30 nM at Endothelin-1 receptor, 230 nM in the assay listed under Oryctolagus cuniculus [1] and 50 nM in assay [2].
Take `COc1ccc(-c2c(C(=O)O)n(Cc3ccc4c(c3)OCO4)c3cc(OC)c(OC)cc23)cc1OC`: the IC50 against Endothelin-1 receptor turned out to be 60 nM; in assay [2], 850 nM.
On the same counts, the results for `COc1ccc(Cn2c(C(=O)O)c(-c3ccc4c(c3)OCO4)c3cc(OCc4ccccc4)ccc32)cc1` are 2700 nM and 4400 nM.
On the same counts, the results for `O=C(O)c1c(-c2ccc3c(c2)OCO3)c2cc(OCc3ccccc3)ccc2n1-c1ccc2c(c1)OCO2` are 1300 nM and 14000 nM.
For the compound `CC(C)Oc1c(C(=O)O)sc2ccc(OCc3ccccc3)cc12`, the results for the IC50 in assay [3], in assay [4] and in assay [5] were more than 100000 nM, 6000 nM and “Not Active”, respectively.
With `COc1ccc(-n2c(C(=O)O)c(-c3ccc4c(c3)OCO4)c3ccccc32)cc1`, the figures for the IC50 (against Endothelin-1 receptor; in assay [2]) were 2300 nM and more than 25000 nM, respectively.
On the same counts, the results for `O=C(O)c1c(-c2ccc3c(c2)OCO3)c2ccccc2n1-c1ccc2c(c1)OCO2` are 4100 nM and 22000 nM.
Turning to `CCCOc1ccc2c(c1)c(-c1ccc3c(c1)OCO3)c(C(=O)O)n2Cc1ccc2c(c1)OCO2`, the IC50 against Endothelin-1 receptor is 130 nM and 80 nM; in assay [2], 1100 nM and 850 nM.
Consider `CCCOc1ccc2c(c1)c(-c1ccc3c(c1)OCO3)c(C(=O)O)n2-c1ccc2c(c1)OCO2`, for which the values for the IC50 (at Endothelin-1 receptor; in assay [2]) were 43 nM and 12000 nM, respectively.
On the same counts, the results for `COc1cccc(-c2c(C(=O)O)n(-c3ccc4c(c3)OCO4)c3ccc(OC)cc23)c1` are 5500 nM and more than 25000 nM.
On the same counts, the results for `COc1ccc2c(c1)c(-c1ccc(OC)c(OC)c1)c(C(=O)O)n2-c1ccc2c(c1)OCO2` are 1500 nM and more than 25000 nM.
On the same counts, the results for `COc1ccc2c(c1)c(-c1ccc3c(c1)OCO3)c(C(=O)O)n2Cc1ccc2c(c1)OCO2` are 350 nM and 2400 nM.
Turning to `COc1ccc2c(c1)c(-c1ccc3c(c1)OCO3)c(C(=O)O)n2-c1ccc2c(c1)OCO2`, the concentration for half-maximal inhibition (IC50) was 260 nM at Endothelin-1 receptor and 15000 nM in assay [2].
Consider `O=C(O)c1c(-c2ccc3c(c2)OCO3)c2ccccc2n1Cc1ccccc1`, for which the IC50 on Endothelin-1 receptor came to 11000 nM; in assay [2] it was 14500 nM.
On to `CCCOc1ccc2c(-c3ccc4c(c3)OCO4)c(C(=O)O)n(Cc3ccc4c(c3)OCO4)c2c1`, for which the IC50 stood at 47 nM against Endothelin-1 receptor, 480 nM in the assay filed under Oryctolagus cuniculus [6] and 5600 nM in assay [2].
Regarding `COc1ccc2c(c1)c(-c1ccc3c(c1)OCO3)c(C(=O)O)n2-c1ccccc1`, the IC50 at Endothelin-1 receptor was 12000 nM; in assay [2] it was more than 25000 nM.
For `COc1ccc(-c2c(C(=O)O)n(-c3ccc4c(c3)OCO4)c3ccc(OCc4ccccc4)cc23)cc1`, the IC50 on Endothelin-1 receptor amounted to 2400 nM; in assay [2], 21000 nM.
`O=C(O)c1c(-c2ccc3c(c2)OCO3)c2cc(Cl)ccc2n1-c1ccccc1`: the IC50 was 10000 nM at Endothelin-1 receptor and more than 25000 nM in assay [2].
Regarding `O=C(O)c1c(-c2ccc3c(c2)OCO3)c2cc3c(cc2n1Cc1ccc2c(c1)OCO2)OCO3`, the IC50 at Endothelin-1 receptor is 240 nM; in assay [2], 670 nM.
On the same counts, the results for `COc1cc2c(-c3ccc4c(c3)OCO4)c(C(=O)O)n(-c3ccc4c(c3)OCO4)c2cc1OC` are 80 nM and 7000 nM.
On the same counts, the results for `COc1ccc(-c2c(C(=O)O)n(-c3ccc4c(c3)OCO4)c3ccc(OC)cc23)cc1` are 1100 nM and more than 25000 nM.
The matching figures for `COc1ccc2c(-c3ccc4c(c3)OCO4)c(C(=O)O)n(-c3ccccc3)c2c1`: 7400 nM and more than 25000 nM.
Compound `COc1cc2c(-c3ccc4c(c3)OCO4)c(C(=O)O)n(Cc3ccc4c(c3)OCO4)c2cc1OC` yielded an IC50 at Endothelin-1 receptor of 60 nM.
For the compound `O=C(O)c1c(-c2ccc3c(c2)OCO3)c2ccccc2n1Cc1ccc2c(c1)OCO2`, the IC50 came to 1500 nM on Endothelin-1 receptor and 3300 nM in assay [2].
With `O=C(O)c1c(-c2ccc3c(c2)OCO3)c2cc(OCc3ccccc3)ccc2n1Cc1ccc2c(c1)OCO2`, the figures for the IC50 (on Endothelin-1 receptor; in assay [2]) were 800 nM and 2500 nM, respectively.
On the same counts, the results for `COc1ccc(-n2c(C(=O)O)c(-c3ccc4c(c3)OCO4)c3cc(OC)ccc32)cc1` are 3500 nM and more than 25000 nM.
